# Assays:
# Test in all cases: relative viability (nuclei count vs DMSO), 5 days (fraction); higher = more cells survive
# [1] = test system: A-427
# How it was run: (§1)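 Medians of duplicate plates are given as relative viability. That measure is the nuclei count in treated wells divided by the count in vehicle wells. Counts were taken on 4× images of lung cancer cell lines in 1536-well plates, 5 days after pin-tool dosing the day after seeding with one drug alone or a fixed anchor-drug dose plus five library-drug doses (not always all listed) in √10 steps.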
# [2] = test system: COR-L 105
# How it was run: as §1
# [3] = test system: ChaGo-K-1
# How it was run: as §1
# [4] = test system: EKVX
# How it was run: as §1
# [5] = test system: EMC-BAC-2
# How it was run: as §1
# [6] = test system: H3255
# How it was run: as §1
# [7] = test system: HCC-366
# How it was run: as §1
# [8] = test system: LK-2
# How it was run: as §1
# [9] = test system: LOU-NH91
# How it was run: as §1
# [10] = test system: NCI-H1666
# How it was run: as §1
# [11] = test system: NCI-H1734
# How it was run: as §1
# [12] = test system: NCI-H1755
# How it was run: as §1
# [13] = test system: NCI-H1975
# How it was run: as §1
# [14] = test system: NCI-H2170
# How it was run: as §1
# [15] = test system: NCI-H23
# How it was run: as §1
# [16] = test system: NCI-H441
# How it was run: as §1
# [17] = test system: NCI-H520
# How it was run: as §1
# [18] = test system: NCI-H596
# How it was run: as §1
# [19] = test system: PC-3 [JPC-3]
# How it was run: as §1
# [20] = test system: SK-MES-1
# How it was run: as §1
# [21] = test system: SW 900
# How it was run: as §1
compound,measurement,setting,value
Nc1ccn([C@@H]2O[C@H](CO)[C@@H](O)[C@@H]2O)c(=O)n1 [Cytarabine] + O=C(CCCCCCC(=O)Nc1ccccc1)NO [Vorinostat] (partner 1 µM),relative viability,[1]; first compound 0.005 µM,0.758
same,relative viability,[1]; first compound 0.01581 µM,0.636
same,relative viability,[1]; first compound 0.05 µM,0.325
same,relative viability,[1]; first compound 0.1581 µM,0.339
same,relative viability,[1]; first compound 0.5 µM,0.306
same,relative viability,[2]; first compound 0.005 µM,0.816
same,relative viability,[2]; first compound 0.01581 µM,0.79
same,relative viability,[2]; first compound 0.05 µM,0.55
same,relative viability,[2]; first compound 0.1581 µM,0.583
same,relative viability,[2]; first compound 0.5 µM,0.418
same,relative viability,[3]; first compound 0.005 µM,0.673
same,relative viability,[3]; first compound 0.01581 µM,0.649
same,relative viability,[3]; first compound 0.05 µM,0.471
same,relative viability,[3]; first compound 0.1581 µM,0.408
same,relative viability,[3]; first compound 0.5 µM,0.288
same,relative viability,[4]; first compound 0.005 µM,0.706
same,relative viability,[4]; first compound 0.01581 µM,0.7
same,relative viability,[4]; first compound 0.05 µM,0.636
same,relative viability,[4]; first compound 0.1581 µM,0.494
same,relative viability,[4]; first compound 0.5 µM,0.414
same,relative viability,[5]; first compound 0.005 µM,0.494
same,relative viability,[5]; first compound 0.01581 µM,0.448
same,relative viability,[5]; first compound 0.05 µM,0.165
same,relative viability,[5]; first compound 0.1581 µM,0.29
same,relative viability,[5]; first compound 0.5 µM,0.182
same,relative viability,[6]; first compound 0.005 µM,0.862
same,relative viability,[6]; first compound 0.01581 µM,0.853
same,relative viability,[6]; first compound 0.05 µM,0.655
same,relative viability,[6]; first compound 0.1581 µM,0.608
same,relative viability,[6]; first compound 0.5 µM,0.878
same,relative viability,[7]; first compound 0.005 µM,0.31
same,relative viability,[7]; first compound 0.01581 µM,0.347
same,relative viability,[7]; first compound 0.05 µM,0.301
same,relative viability,[7]; first compound 0.1581 µM,0.087
same,relative viability,[7]; first compound 0.5 µM,0.0576
same,relative viability,[8]; first compound 0.005 µM,0.244
same,relative viability,[8]; first compound 0.01581 µM,0.29
same,relative viability,[8]; first compound 0.05 µM,0.242
same,relative viability,[8]; first compound 0.1581 µM,0.143
same,relative viability,[8]; first compound 0.5 µM,0.119
same,relative viability,[9]; first compound 0.005 µM,0.857
same,relative viability,[9]; first compound 0.01581 µM,0.917
same,relative viability,[9]; first compound 0.05 µM,0.806
same,relative viability,[9]; first compound 0.1581 µM,0.772
same,relative viability,[9]; first compound 0.5 µM,0.676
same,relative viability,[10]; first compound 0.005 µM,0.948
same,relative viability,[10]; first compound 0.01581 µM,0.843
same,relative viability,[10]; first compound 0.05 µM,0.768
same,relative viability,[10]; first compound 0.1581 µM,0.733
same,relative viability,[10]; first compound 0.5 µM,0.619
same,relative viability,[11]; first compound 0.005 µM,0.493
same,relative viability,[11]; first compound 0.01581 µM,0.361
same,relative viability,[11]; first compound 0.05 µM,0.317
same,relative viability,[11]; first compound 0.1581 µM,0.138
same,relative viability,[11]; first compound 0.5 µM,0.125
same,relative viability,[12]; first compound 0.005 µM,0.823
same,relative viability,[12]; first compound 0.01581 µM,0.794
same,relative viability,[12]; first compound 0.05 µM,0.685
same,relative viability,[12]; first compound 0.1581 µM,0.502
same,relative viability,[12]; first compound 0.5 µM,0.375
same,relative viability,[13]; first compound 0.005 µM,0.572
same,relative viability,[13]; first compound 0.01581 µM,0.675
same,relative viability,[13]; first compound 0.05 µM,0.568
same,relative viability,[13]; first compound 0.1581 µM,0.429
same,relative viability,[13]; first compound 0.5 µM,0.287
same,relative viability,[14]; first compound 0.005 µM,0.823
same,relative viability,[14]; first compound 0.01581 µM,0.65
same,relative viability,[14]; first compound 0.05 µM,0.621
same,relative viability,[14]; first compound 0.1581 µM,0.4
same,relative viability,[14]; first compound 0.5 µM,0.314
same,relative viability,[15]; first compound 0.005 µM,0.65
same,relative viability,[15]; first compound 0.01581 µM,0.511
same,relative viability,[15]; first compound 0.05 µM,0.306
same,relative viability,[15]; first compound 0.1581 µM,0.156
same,relative viability,[15]; first compound 0.5 µM,0.122
same,relative viability,[16]; first compound 0.005 µM,0.527
same,relative viability,[16]; first compound 0.01581 µM,0.882
same,relative viability,[16]; first compound 0.05 µM,0.852
same,relative viability,[16]; first compound 0.1581 µM,0.398
same,relative viability,[16]; first compound 0.5 µM,0.229
same,relative viability,[17]; first compound 0.005 µM,0.636
same,relative viability,[17]; first compound 0.01581 µM,0.668
same,relative viability,[17]; first compound 0.05 µM,0.776
same,relative viability,[17]; first compound 0.1581 µM,0.555
same,relative viability,[17]; first compound 0.5 µM,0.502
same,relative viability,[18]; first compound 0.005 µM,0.545
same,relative viability,[18]; first compound 0.01581 µM,0.553
same,relative viability,[18]; first compound 0.05 µM,0.502
same,relative viability,[18]; first compound 0.1581 µM,0.431
same,relative viability,[18]; first compound 0.5 µM,0.272
same,relative viability,[19]; first compound 0.005 µM,0.78
same,relative viability,[19]; first compound 0.01581 µM,0.775
same,relative viability,[19]; first compound 0.05 µM,0.546
same,relative viability,[19]; first compound 0.1581 µM,0.466
same,relative viability,[19]; first compound 0.5 µM,0.592
same,relative viability,[20]; first compound 0.005 µM,0.851
same,relative viability,[20]; first compound 0.01581 µM,0.778
same,relative viability,[20]; first compound 0.05 µM,0.6
same,relative viability,[20]; first compound 0.1581 µM,0.283
same,relative viability,[20]; first compound 0.5 µM,0.233
same,relative viability,[21]; first compound 0.005 µM,0.399
same,relative viability,[21]; first compound 0.01581 µM,0.491
same,relative viability,[21]; first compound 0.05 µM,0.376
same,relative viability,[21]; first compound 0.1581 µM,0.182
same,relative viability,[21]; first compound 0.5 µM,0.166
